These results are taken from patent US5281628A, “9-amino-7-(substituted)-6-demethyl-6-deoxytetracyclines” (American Cyanamid Company, priority 1991, dated 1994).

Counter-ions that a name gives are not always drawn.

Holding throughout (assay type): cell-based
The test system of experiment [1] is tetracycline sensitive and resistant Gram-positive and Gram-negative bacteria. Kind of experiment: In vitro antibacterial evaluation, statements on the whole panel. As to the method: (§1) The minimum inhibitory concentration (MIC), the lowest concentration of the antibiotic which inhibits growth of the test organism, is determined by the microtiter broth dilution method using 0.1 ml Muller-Hinton II broth (Baltimore Biological Laboratories) per well. A suitable oxygen scavenger (i.e., cysteine or dithiothreitol) is added to the assay medium for the testing of compounds according to Formula I because of the sensitivity of those compounds to oxidation. An inoculum level of 1-5×10^5 CFU/ml and a range of antibiotic concentrations (32 0.004 μg/ml) are used.

In experiment [2] the test system is S. aureus IVES 2943 (methicillin-resistant). As to the kind of experiment: MIC, microtiter broth dilution. The following applies: Staphylococcus aureus, 18 h. The procedure: as §1
(In general: Dilution methods test growth across graded concentrations, often in twofold steps.)

The test system of a further experiment is S. marcescens FPOR 87-33. As to the kind of experiment: MIC, microtiter broth dilution. The following applies: Serratia marcescens, FPOR8733, 18 h. The procedure:
as §1

Experiment [3] concerns S. aureus IVES 1983 (methicillin-resistant). Kind of experiment: MIC, microtiter broth dilution. The following applies: Staphylococcus aureus, 18 h. As to the method: as §1
The subject of the next experiment is E. faecalis ATCC 29212. As to the kind of experiment: MIC, microtiter broth dilution. The conditions noted are these: Enterococcus faecalis, ATCC29212, 18 h. The procedure:
as §1

The test system of experiment [4] is S. aureus UBMS 90-3 (tetracycline-sensitive). As to the kind of experiment: MIC, microtiter broth dilution. The conditions noted are these: Staphylococcus aureus, 18 h. The procedure:
as §1

The next experiment concerns M. morganii NEMC 87-119. As to the kind of experiment: MIC, microtiter broth dilution. The conditions noted are these: Morganella morganii, NEMC87119, 18 h. The procedure: as §1
The test system of a further experiment is P. aeruginosa ATCC 27853. Kind of experiment: MIC, microtiter broth dilution. The conditions noted are these: Pseudomonas aeruginosa, ATCC27853, 18 h. The procedure: as §1
In experiment [5] the test system is S. haemolyticus AVAH 88-3. Kind of experiment: MIC, microtiter broth dilution. The following applies: Staphylococcus haemolyticus, AVAH883, 18 h; S. haemolyticus AVAH 88-3; in the presence of cysteine (0.05%); read-out: MIC. The procedure:
as §1

Experiment [6] relates to E. coli UBMS 89-2 (tetracycline-sensitive). Kind of experiment: MIC, microtiter broth dilution. The conditions noted are these: Escherichia coli, 18 h. The procedure: as §1
The test system of experiment [7] is E. coli UBMS 90-5 (tetracycline-sensitive). As to the kind of experiment: MIC, microtiter broth dilution. The following applies: Escherichia coli, 18 h. The procedure: as §1
The test system of the next experiment is E. coli ATCC 25922. Kind of experiment: MIC, microtiter broth dilution. The following applies: Escherichia coli, ATCC25922, 18 h. As to the method:
as §1

Experiment [8] concerns S. aureus UBMS 88-7 (tetK). As to the kind of experiment: microbe, parasite or virus in culture. The conditions noted are these: Staphylococcus aureus, 18 h. As to the method: as §1
The subject of experiment [9] is S. aureus UBMS 88-5 (tetM). Kind of experiment: microbe, parasite or virus in culture. The following applies: Staphylococcus aureus, 18 h. The procedure: as §1
For the next experiment, the system named is E. coli UBMS 88-1 (tetB). As to the kind of experiment: microbe, parasite or virus in culture. The conditions noted are these: Escherichia coli, 18 h. The procedure: as §1
The test system of experiment [10] is X. maltophilia FPOR 87-210. Kind of experiment: MIC, microtiter broth dilution. The conditions noted are these: Stenotrophomonas maltophilia, FPOR87210, 18 h, no cysteine stated. The procedure:
as §1

In a further experiment the test system is E. coli UBMS 90-4 (tetM). Kind of experiment: MIC, microtiter broth dilution. The conditions noted are these: Escherichia coli, 18 h. The procedure: as §1
The test system of a further experiment is S. aureus ATCC 29213. As to the kind of experiment: MIC, microtiter broth dilution. The conditions noted are these: Staphylococcus aureus, ATCC29213, 18 h, no cysteine stated. The procedure: as §1
Experiment [11] has as its system S. aureus UBMS 88-4 (tetracycline-sensitive). As to the kind of experiment: MIC, microtiter broth dilution. The conditions noted are these: Staphylococcus aureus, 18 h, no cysteine stated. The procedure: as §1
For experiment [12], the system named is E. coli UBMS 88-2 (tetracycline-sensitive). As to the kind of experiment: MIC, microtiter broth dilution. The conditions noted are these: Escherichia coli, 18 h, no cysteine stated. As to the method: as §1
Where [13] appears, read: in the presence of cysteine (0.05%).

In the case of `CCN(CC)c1cc(N)c(O)c2c1C[C@H]1C[C@H]3[C@H](N(C)C)C(O)=C(C(N)=O)C(=O)[C@@]3(O)C(O)=C1C2=O` [C, 9-Amino-7-(diethylamino)-6-demethyl-6-deoxytetracycline sulfate], in [1] (comparator D), the “antibacterial activity versus D” value is reported as “enhancement of antibacterial activity”. Besides, the MIC amounted to 0.25 µg/mL in [2] (setting [13]); 4 µg/mL in the experiment on S. marcescens FPOR 87-33 (setting [13]); 0.25 µg/mL in experiment [3] (setting [13]); 0.12 µg/mL with E. faecalis ATCC 29212 (setting [13]); 0.03 µg/mL in experiment [4] (setting [13]); 2 µg/mL in the experiment on M. morganii NEMC 87-119 (setting [13]). Besides, the MIC was found to be 8 µg/mL in the experiment on P. aeruginosa ATCC 27853 (setting [13]); 0.12 µg/mL in experiment [5]; 0.5 µg/mL in experiment [6] (setting [13]); 1 µg/mL in [7] (setting [13]); 0.5 µg/mL with E. coli ATCC 25922 (setting [13]).
For `CCN(CC)c1ccc(O)c2c1C[C@H]1C[C@H]3[C@H](N(C)C)C(O)=C(C(N)=O)C(=O)[C@@]3(O)C(O)=C1C2=O` [D, 7-(Diethylamino)-6-demethyl-6-deoxytetracycline sulfate], the “Antibacterial potency in the presence of cysteine” value in experiment [1] (in the presence of cysteine versus without) is on record as “not enhanced”. Also, the MIC in [8] came to 0.12 µg/mL; in experiment [9], 16 µg/mL; against E. coli UBMS 88-1 (tetB) it was 32 µg/mL; in experiment [2] (no cysteine stated), 8 µg/mL; against S. marcescens FPOR 87-33 (no cysteine stated) it was 32 µg/mL; in [3] (no cysteine stated), 8 µg/mL. The MIC with E. faecalis ATCC 29212 (no cysteine stated) is 8 µg/mL; in [10], 0.25 µg/mL; in [4] (no cysteine stated) it was 0.03 µg/mL; with M. morganii NEMC 87-119 (no cysteine stated), 32 µg/mL; against P. aeruginosa ATCC 27853 (no cysteine stated) it was 32 µg/mL; against E. coli UBMS 90-4 (tetM), greater than 32 µg/mL. Besides, the MIC is 4 µg/mL in experiment [6] (no cysteine stated); 2 µg/mL in experiment [7] (no cysteine stated); less than 0.015 µg/mL in the experiment on S. aureus ATCC 29213; 0.03 µg/mL in experiment [11]; 1 µg/mL against E. coli ATCC 25922 (no cysteine stated); 2 µg/mL in [12].
